Measured values as given in patent US20230046947A1, “REACTIVE CONJUGATES” (Debiopharm Research & Manufacturing S.A., priority 2019, published 2023).
Where a SMILES comes first, the peptide text is derived from it. Bridges are numbered along the chain shown (N, C = ends). Where no end group is shown, it is not given here. [ ]: non-standard residue; d: D form. PEG20 = NCCOCCOCCOCCOCCOCCOCCOCCOCCOCCOCCOCCOCCOCCOCCOCCOCCOCCOCCOCCOCCC(=O)O

Target: T1, Fc region of trastuzumab (Homo sapiens, UniProt P01857)
T1 construct: made in house; host or cells: recombinant CHO cell lines
Test: Competitive FP binding assay against Fc-III-FAM
Conditions: for binding to the Fc region of trastuzumab (in words): competitive FP against Fc-III-FAM
Experimental: The competitive FP measurements were performed on SpectraMax Paradigm Multi-Mode Detection Platform (Molecular Devices) in flat-bottom 384-well Corning microplates (Merck KGaA), using excitation and emission wavelengths of 485 nm and 535 nm, respectively. The acquisition time was 700 milliseconds and the read height was 1 mm. All reagents used in the assay were diluted in PBS containing 0.05% Tween 20.
The mixture was incubated at 27° C. for 15 min and the fluorescence signal was red on a Spectramax Paradigm. All sample preparations were done in PBS pH 7.4 or 7.0 containing 0.05% Tween. Each experiment was performed in triplicate.

Compound	IC50 [µM]	binding to the Fc region of trastuzumab (in words)
CC(C)C[C@@H]1NC(=O)[C@H](Cc2c[nH]cn2)NC(=O)[C@H](Cc2c[nH]c3ccccc23)NC(=O)[C@H](C)NC(=O)[C@@H](NC(=O)[C@@H](N)CC(=O)O)CSSC[C@@H](C(=O)N[C@H](C(N)=O)[C@@H](C)O)NC(=O)[C@H](C)NC(=O)[C@H](Cc2c[nH]c3ccccc23)NC(=O)[C@H](CC(C)C)NC(=O)[C@H](CCC(=O)O)NC(=O)CNC1=O [Compound 13] (H-DCAWHLGELWACT-NH2; disulfide 2-12 (inferred))	36.5 ± 15.6	
NH2—(PEG)20—CH2CH2—CO—DCAWHLGELWACT—NH2 ([PEG20]DCAWHLGELWACT-NH2; disulfide 3-13 (inferred)) [Compound 15]		impaired peptide binding
CC(C)C[C@H](NC(=O)[C@H](Cc1c[nH]cn1)NC(=O)[C@H](Cc1c[nH]c2ccccc12)NC(=O)[C@H](C)NC(=O)[C@H](C)NC(=O)[C@H](CC(=O)O)NC(=O)CCOCCOCCOCCOCCOCCOCCOCCOCCOCCOCCOCCOCCOCCOCCOCCOCCOCCOCCOCCOCCN)C(=O)NCC(=O)N[C@@H](CCC(=O)O)C(=O)N[C@@H](CC(C)C)C(=O)N[C@H](C(=O)N[C@@H](Cc1c[nH]c2ccccc12)C(=O)N[C@@H](C)C(=O)N[C@H](C(N)=O)[C@@H](C)O)C(C)C [Compound 16] (H-[PEG20]DAAWHLGELVWAT-NH2)	10.7 ± 11.9	impaired peptide binding
CC(C)C[C@@H]1NC(=O)[C@H](Cc2c[nH]cn2)NC(=O)[C@H](Cc2c[nH]c3ccccc23)NC(=O)[C@H](C)NC(=O)[C@@H](NC(=O)[C@H](CC(=O)O)NC(=O)[C@@H]2CCCN2C(=O)[C@@H]2CCCN2C(=O)[C@@H]2CCCN2C(=O)[C@@H]2CCCN2C(=O)[C@@H]2CCCN2C(=O)[C@@H]2CCCN2C(=O)CNC(=O)CNC(=O)[C@@H](N)CO)CSSC[C@@H](C(=O)N[C@H](C(N)=O)[C@@H](C)O)NC(=O)[C@H](Cc2c[nH]c3ccccc23)NC(=O)[C@H](C(C)C)NC(=O)[C@H](CC(C)C)NC(=O)[C@H](CCC(=O)O)NC(=O)CNC1=O [Compound 2] (H-SGGPPPPPPDCAWHLGELVWCT-NH2; disulfide 11-21 (inferred))	0.061 ± 0.033	high affinity
